Measured values reported in patent US10865207B2, “Compounds for imaging Tau protein aggregates” (AC IMMUNE S.A., priority 2016, dated 2020).

Columns and labels:
[1] = molecular target: Tau (Homo sapiens, UniProt P10636); test: Competition binding to Tau in human AD brain homogenate with 18F-labeled Tau binder; conditions: for binding affinity for Tau (in words): IC50 determined in AD brain homogenate; for high Tau binding (grade): Table 2, fluorine-19 derivatives; as to high Tau binding (grade): key: −: poor; ∘: moderate; +: good; ++: very good; +++: excellent
Protocol: 20 μg of human Alzheimer disease brain homogenate was incubated with a dilution series of each test compound (1000 to 0.06 nM) in the presence of 800 Bq of ^18F-labeled Tau binder. The samples were shaken at 110 rpm for 45 min at 37° C. Samples were then filtered through GF/B 96 well filter plates and washed twice with 300 μL assay buffer (PBS containing 0.1% BSA and 2% DMSO). Thereafter, filter plates were sealed and a Fuji Film Imaging Plate (BAS-SR2025) was placed on top. The imaging plate was analyzed after overnight exposition using a Fuji Film BAS-5000. Non-specific signal was determined with samples containing ^18F-labeled Tau-reference binder in the presence of assay buffer without brain substrate and competitor. […] The unblocked ^18F-labeled Tau-binder signal was defined as total binding. IC50 values were calculated by Prism V6 (GraphPad) setting total binding to 100%.

[2] = molecular target: T1, MAO A (Mus musculus, UniProt Q64133); test: MAO A 18F-FEH competition assay in mouse brain homogenate; format: binding; conditions: for low MAO A binding (grade): Table 2, IC50 in mouse brain homogenate
T1 construct: from tissue; host or cells: whole mouse brain homogenate
T1 sequence (Q64133 1-526): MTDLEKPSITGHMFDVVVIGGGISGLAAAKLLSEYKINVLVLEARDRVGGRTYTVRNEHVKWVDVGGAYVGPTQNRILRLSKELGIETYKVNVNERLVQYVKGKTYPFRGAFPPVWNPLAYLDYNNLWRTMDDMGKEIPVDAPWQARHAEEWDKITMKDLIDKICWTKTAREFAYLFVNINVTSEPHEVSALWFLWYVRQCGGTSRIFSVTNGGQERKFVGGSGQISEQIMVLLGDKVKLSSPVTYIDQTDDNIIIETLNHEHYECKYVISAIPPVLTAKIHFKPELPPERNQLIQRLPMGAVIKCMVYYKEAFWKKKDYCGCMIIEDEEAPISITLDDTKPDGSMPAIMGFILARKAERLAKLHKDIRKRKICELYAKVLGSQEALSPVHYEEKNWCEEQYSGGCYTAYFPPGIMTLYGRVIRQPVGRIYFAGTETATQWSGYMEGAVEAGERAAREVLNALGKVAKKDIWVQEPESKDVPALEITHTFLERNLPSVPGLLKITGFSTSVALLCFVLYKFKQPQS

[3] = PK studies in healthy mice (dynamic PET); format: in vivo, NMRI mice; parameters: Good brain uptake (grade) / Mouse PK Uptake (grade): key: −: poor; ∘: moderate; +: good; ++: very good; +++: excellent; conditions: for Mouse PK De-fluorination (grade) / Mouse PK Uptake (grade) / Mouse PK Washout (grade): Table 2; for bone uptake in shoulder joint at 60 min (de-fluorination) / peak uptake in brain (tracer uptake in healthy mice after iv injection) / ratio of uptake peak/30 min (washout from healthy brain): healthy mice; for bone uptake in shoulder joint at 60 min (de-fluorination): after iv injection; for peak uptake in brain (tracer uptake in healthy mice after iv injection): PET; for ratio of uptake peak/30 min (washout from healthy brain): Table 1: ratio of uptake at 2 min and 30 min; as to Good brain uptake (grade): key: −: poor; ∘: moderate; +: good; ++: very good; +++: excellent; as to Mouse PK De-fluorination (grade): key: −: poor; ∘: moderate; +: good; ++: very good; +++: excellent; as to Mouse PK Washout (grade): key: −: poor; ∘: moderate; +: good; ++: very good; +++: excellent
Protocol: NMRI mice (weight range 25-35 g) were injected intravenously with the ^18F-labeled compounds. Up to 150 μL of 1×PBS solution with 10%-15% EtOH or dilution medium ([…]) containing the ^18F-labeled compound (2-10 MBq) were injected. Anesthesia with isoflurane was induced before injection of the tracer and maintained during the image acquisition period. PET scans were performed using a SIEMENS INVEON small animal PET/CT scanner (Siemens, Knoxville, Tenn.). PET acquisition was started immediately before the radioactive dose was injected into the animal through the tail vein. Images were generated as dynamic scans for 60 minutes.
The peak uptake in the brain was set to 100% and washout curves were generated to evaluate the clearance of the activity from the normal brain (FIG. 2).

Tau, sequence (P10636 623-708 limits assumed): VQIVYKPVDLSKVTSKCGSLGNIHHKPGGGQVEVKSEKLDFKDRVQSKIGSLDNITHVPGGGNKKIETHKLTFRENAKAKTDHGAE

| Structure (SMILES) | binding affinity for Tau (in words) [1] | high Tau binding (grade) [1] | low MAO A binding (grade) [2] | Mouse PK De-fluorination (grade) [3] | Mouse PK Uptake (grade) [3] | Mouse PK Washout (grade) [3] | bone uptake in shoulder joint at 60 min (de-fluorination) [3] | peak uptake in brain (tracer uptake in healthy mice after iv injection) [3] | ratio of uptake peak/30 min (washout from healthy brain) [3] | selectivity over MAO A (in words) [2] | Good brain uptake (grade) ([3]; Table 1) | Low retention in healthy brain (grade) ([3]; Table 1) | Fast washout from healthy brain (grade) ([3]; Table 1) | Low or minor de-fluorination (grade) ([3]; Table 1) | De-fluorination in mice (in words) ([3]; mouse, in vivo) |
| --- | --- | --- | --- | --- | --- | --- | --- | --- | --- | --- | --- | --- | --- | --- | --- |
| Fc1cncc(-c2ccc3c(n2)[nH]c2ccncc23)c1 [Comparative Example 5 (F-5)] | inferior | ++ | +++ | + | ++ | + | (2.9% ID/g) | (5.3% ID/g) | (9.6) |  |  |  |  |  |  |
| Fc1ccncc1-c1ccc2c(n1)[nH]c1ccncc12 [Comparative Example 6 (F-6)] | poor | − | +++ |  | +++ | ++ | (4.8% ID/g) | (8.2% ID/g) | (14.5) |  |  |  |  |  |  |
| Fc1cccc(-c2ccc3c(n2)[nH]c2ccncc23)n1 [Comparative Example 7 (F-7)] | inferior | ++ | + | − | +++ |  | (11.1% ID/g) | (8.5% ID/g) | (7.0) | Inferior |  |  |  |  |  |
| Fc1ccc(-c2ccc3c(n2)[nH]c2ccncc23)nc1 [Comparative Example 8 (F-8)] |  | +++ |  |  |  |  |  |  |  | Inferior |  |  |  |  |  |
| Fc1ccnc(-c2ccc3c(n2)[nH]c2ccncc23)c1 [Comparative Example 9 (F-9)] | inferior | ++ | +++ |  |  |  |  |  |  |  |  |  |  |  |  |
| Fc1cccnc1-c1ccc2c(n1)[nH]c1ccncc12 [Comparative Example 10 (F-10)] | poor | − | +++ | − |  | − | (6.2% ID/g) | (2.1% ID/g) | (3.6) |  |  |  |  |  |  |
| Fc1ccc(-c2ccc3c(n2)[nH]c2ccncc23)cn1 [Compound F-2] |  | +++ | + | − | ++ | ++ | (6.2% ID/g) | (5.7% ID/g) | (10.9) | Inferior |  |  |  |  |  |
| [18F]c1ccc(-c2ccc3c(c2)[nH]c2ccncc23)cn1 [Compound ^18F-1] |  |  |  |  |  |  |  |  |  |  | ++ | − |  |  |  |
| [18F]c1ccc(-c2ccc3c(n2)[nH]c2ccncc23)cn1 [Compound ^18F-2] |  |  |  |  |  |  |  |  |  |  | ++ |  | + | − | De-fluorination in mice was found |
